Experimental data from patent publication US4363805A, “Aminodesoxy-1.4;3.6-dianhydrohexitol nitrates and pharmaceutical composition” (Firma Willmar Schwabe, priority 1980, dated 1982).

Tests used:
[1] = tested on: narcotised guinea pigs; assay: Blood pressure experiments on guinea pigs, i.v.; format: in vivo, guinea pig
[2] = tested on: mongrel cats; assay: Inotropic and heart-circulatory effectiveness on narcotised cats, intravenous; format: in vivo, cat; details: 6 animals
[3] = tested on: isolated guinea pig hearts; assay: Experiments on Langendorff hearts (coronary flowthrough, inotropism, frequency); details: Cavia porcellus, read-out: flowthrough, percentage change with regard to the initial value
Experimental: After reaching the stationary state in the 30th minute, the hearts were each perfused with 50 ml. tyrode solution with a content of test substance of, in each case, 25 μg./ml. Each test substance was tested on 3-6 hearts.
In each case, there was measured the inotropism, the flowthrough and the frequency, whereby the values given in Table I are average values of the percentage changes in comparison with the initial values.

[4] = Acute toxicity, intravenous, mice; format: in vivo; details: mouse, in vivo; intravenous, within 24 hours; read-out: Evaluated LD50-range
[5] = tested on: female NMRI-albino mice; assay: Acute toxicity, intravenous, mice; format: in vivo; details: within 24 hours
[6] = tested on: mongrel cats; assay: Inotropic and heart-circulatory effectiveness on narcotised cats, intraduodenal; format: in vivo, cat; details: 5 mg/kg intraduodenal
[7] = 0.25 mg/kg i.v., before administration

Structure (SMILES): O=[N+]([O-])O[C@H]1CO[C@H]2[C@@H]1OC[C@@H]2NCC(O)COc1cccc(C(F)(F)F)c1 (stereo partly drawn) [Example 52, 5-[2-Hydroxy-3-(3-trifluoromethylphenoxy)-propylamino]-5-desoxy-1.4;3.6-dianhydro-L-iditol 2-nitrate]
- blood pressure after ([1]; 0.25 mg/kg i.v.): 60.50 ± 1.32 mm.Hg
- blood pressure Δ ([1]; 0.25 mg/kg i.v.): -5.00 mm.Hg
- blood pressure before [1, 7]: 65.50 ± 1.50 mm.Hg
- blood pressure after ([1]; 1.00 mg/kg i.v.): 49.25 ± 4.37 mm.Hg
- blood pressure Δ ([1]; 1.00 mg/kg i.v.): -11.75 mm.Hg
- blood pressure after ([1]; 2.50 mg/kg i.v.): 39.00 ± 4.38 mm.Hg
- blood pressure Δ ([1]; 2.50 mg/kg i.v.): -17.75 mm.Hg
- blood pressure before [2, 7]: 91.7 mm.Hg
- dp/dt (inotropism) before [2, 7]: 6150 mm.Hg/sec
- heart frequency before [2, 7]: 216.7 min⁻¹
- blood pressure WD ([2]; 0.25 mg/kg i.v.): 5.6 min
- blood pressure after ([2]; 0.25 mg/kg i.v.): 77.2 mm.Hg
- blood pressure Δ ([2]; 0.25 mg/kg i.v.): -14.5 mm.Hg
- dp/dt (inotropism) after ([2]; 0.25 mg/kg i.v.): 5517 mm.Hg/sec
- dp/dt (inotropism) Δ ([2]; 0.25 mg/kg i.v.): -633 mm.Hg/sec
- dp/dt WD ([2]; 0.25 mg/kg i.v.): 4.2 min
- heart frequency after ([2]; 0.25 mg/kg i.v.): 216.7 min⁻¹
- heart frequency Δ ([2]; 0.25 mg/kg i.v.): 0 min⁻¹
- blood pressure WD ([2]; 0.50 mg/kg i.v.): 11.7 min
- blood pressure after ([2]; 0.50 mg/kg i.v.): 74.8 mm.Hg
- blood pressure Δ ([2]; 0.50 mg/kg i.v.): -19.9 mm.Hg
- dp/dt (inotropism) after ([2]; 0.50 mg/kg i.v.): 5133 mm.Hg/sec
- dp/dt (inotropism) Δ ([2]; 0.50 mg/kg i.v.): -850 mm.Hg/sec
- dp/dt WD ([2]; 0.50 mg/kg i.v.): 10.5 min
- heart frequency after ([2]; 0.50 mg/kg i.v.): 217.0 min⁻¹
- heart frequency Δ ([2]; 0.50 mg/kg i.v.): 0 min⁻¹
- blood pressure WD ([2]; 1.00 mg/kg i.v.): 14.7 min
- blood pressure after ([2]; 1.00 mg/kg i.v.): 69.2 mm.Hg
- blood pressure Δ ([2]; 1.00 mg/kg i.v.): -26.5 mm.Hg
- dp/dt (inotropism) after ([2]; 1.00 mg/kg i.v.): 4250 mm.Hg/sec
- dp/dt (inotropism) Δ ([2]; 1.00 mg/kg i.v.): -1333 mm.Hg/sec
- dp/dt WD ([2]; 1.00 mg/kg i.v.): 15.3 min
- heart frequency after ([2]; 1.00 mg/kg i.v.): 217.3 min⁻¹
- heart frequency Δ ([2]; 1.00 mg/kg i.v.): -1.0 min⁻¹
- blood pressure WD ([2]; 2.50 mg/kg i.v.): > 10 min
- blood pressure after ([2]; 2.50 mg/kg i.v.): 60.5 mm.Hg
- blood pressure Δ ([2]; 2.50 mg/kg i.v.): -34.5 mm.Hg
- dp/dt (inotropism) after ([2]; 2.50 mg/kg i.v.): 2733 mm.Hg/sec
- dp/dt (inotropism) Δ ([2]; 2.50 mg/kg i.v.): -2500 mm.Hg/sec
- dp/dt WD ([2]; 2.50 mg/kg i.v.): > 10 min
- heart frequency after ([2]; 2.50 mg/kg i.v.): 204.0 min⁻¹
- heart frequency Δ ([2]; 2.50 mg/kg i.v.): -14.3 min⁻¹
- activation at 25 µg/mL [3]: 214%
- LD50 at 24 h [4]: 100 to 200 mg/kg
- Frequency of death ([5]; 100 mg/kg i.v.): 1/3
- Frequency of death ([5]; 200 mg/kg i.v.): 6/6
- blood pressure ([6]; 0 min after admin.): 113.8 ± 5.8 mm.Hg
- dp/dt (inotropism) ([6]; 0 min after admin.): 6540 ± 631 mm.Hg/sec
- heart frequency ([6]; 0 min after admin.): 209.6 ± 15.7 min⁻¹
- blood pressure ([6]; 10 min after admin.): 100.4 mm.Hg
- blood pressure Δ ([6]; 10 min after admin.): -13.4 mm.Hg
- dp/dt (inotropism) ([6]; 10 min after admin.): 6200 ± 374 mm.Hg/sec
- dp/dt (inotropism) Δ ([6]; 10 min after admin.): -340 mm.Hg/sec
- heart frequency ([6]; 10 min after admin.): 212.4 ± 13.8 min⁻¹
- blood pressure ([6]; 30 min after admin.): 95.6 ± 9.9 mm.Hg
- blood pressure Δ ([6]; 30 min after admin.): -18.2 mm.Hg
- dp/dt (inotropism) ([6]; 30 min after admin.): 6120 ± 270 mm.Hg/sec
- dp/dt (inotropism) Δ ([6]; 30 min after admin.): -440 mm.Hg/sec
- heart frequency ([6]; 30 min after admin.): 212.8 ± 13.1 min⁻¹
- blood pressure ([6]; 60 min after admin.): 95.8 ± 8.0 mm.Hg
- blood pressure Δ ([6]; 60 min after admin.): -18.0 mm.Hg
- dp/dt (inotropism) ([6]; 60 min after admin.): 5480 ± 314 mm.Hg/sec
- dp/dt (inotropism) Δ ([6]; 60 min after admin.): -1060 mm.Hg/sec
- heart frequency ([6]; 60 min after admin.): 216.0 ± 12.3 min⁻¹
- blood pressure ([6]; 120 min after admin.): 98.4 ± 9.0 mm.Hg
- blood pressure Δ ([6]; 120 min after admin.): -15.4 mm.Hg
- dp/dt (inotropism) ([6]; 120 min after admin.): 5460 ± 768 mm.Hg/sec
- dp/dt (inotropism) Δ ([6]; 120 min after admin.): -1080 mm.Hg/sec
- heart frequency ([6]; 120 min after admin.): 214.4 ± 11.6 min⁻¹
